Test results published in PubChem BioAssay (NCI).
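Growth conditions: 96-well plates. Treatment: test compound, 48 hours, 5 concentrations. Analysis: linear interpolation between bracketing concentrations; unreached endpoints set to highest concentration. TGI marks complete inhibition of growth.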

Legend:
Test in all cases: NCI tumour cell line growth inhibition, 48 h
[1] = tested on: SF-539 CNS
[2] = tested on: UO-31 renal
[3] = tested on: MOLT-4 leukemia
[4] = tested on: EKVX NSCLC
[5] = tested on: TK-10 renal
[6] = tested on: OVCAR-4 ovarian
[7] = tested on: HOP-92 NSCLC
[8] = tested on: SF-268 CNS
[9] = tested on: HT29 colon
[10] = tested on: MDA-N
[11] = tested on: HCC-2998 colon
[12] = tested on: BT-549 breast
[13] = tested on: 786-0 renal
[14] = tested on: PC-3 prostate
[15] = tested on: MALME-3M melanoma
[16] = tested on: OVCAR-8 ovarian
[17] = tested on: CCRF-CEM leukemia
[18] = tested on: HCT-116 colon
[19] = tested on: SN12C renal
[20] = tested on: SW-620 colon
[21] = tested on: NCI-H460 lung
[22] = tested on: COLO 205 colon
[23] = tested on: SK-MEL-28 melanoma
[24] = tested on: UACC-62 melanoma
[25] = tested on: RPMI-8226 leukemia
[26] = tested on: HCT-15 colon
[27] = tested on: HL-60(TB) leukemia
[28] = tested on: A498 renal
[29] = tested on: NCI/ADR-RES ovarian
[30] = tested on: SK-MEL-2 melanoma
[31] = tested on: IGROV1 ovarian
[32] = tested on: OVCAR-5 ovarian
[33] = tested on: SK-OV-3 ovarian
[34] = tested on: A549 NSCLC
[35] = tested on: HS 578T breast
[36] = tested on: UACC-257 melanoma
[37] = tested on: NCI-H23 lung
[38] = tested on: CAKI-1 renal
[39] = tested on: SNB-19 CNS
[40] = tested on: HOP-62 NSCLC
[41] = tested on: OVCAR-3 ovarian
[42] = tested on: M14 melanoma
[43] = tested on: MDA-MB-435
[44] = tested on: ACHN renal
[45] = tested on: SK-MEL-5 melanoma
[46] = tested on: LOX IMVI melanoma
[47] = tested on: K-562 leukemia
[48] = tested on: SF-295 CNS
[49] = tested on: MCF7 breast
[50] = tested on: SR leukemia
[51] = tested on: DU-145 prostate
[52] = tested on: SNB-75 CNS
[53] = tested on: NCI-H226 lung
[54] = tested on: T-47D breast
[55] = tested on: RXF 393 renal
[56] = tested on: NCI-H522 lung
[57] = tested on: KM12 colon
[58] = tested on: MDA-MB-231 breast
[59] = tested on: U251 CNS

Measured: TGI

COc1ccc(CCc2nccn2C)cc1OC
not listed: [51] | [52] | [53] | [54] | [55] | [56] | [57] | [58] | [59]
> 100 µM: all other assays above

COc1cc(C2C(Cl)C(=O)N2NC(=O)c2ccc(NC(C)=O)cc2OC)ccc1O (centres undefined)
73.3 µM: [16]
31.3 µM: [7]
80.1 µM: [52]
43.7 µM: [53]
22.1 µM: [3]
28.4 µM: [32]
47.4 µM: [55] | [39]
61.5 µM: [8]
40.6 µM: [26]
39.8 µM: [37]
37.5 µM: [28]
50.7 µM: [10]
55.2 µM: [47]
68 µM: [57]
50.2 µM: [44]
23 µM: [56]
94 µM: [38]
79.7 µM: [31]
53.5 µM: [41]
32 µM: [22]
13.4 µM: [25]
34.1 µM: [9]
95.5 µM: [2]
14.6 µM: [17]
48.1 µM: [1]
29.9 µM: [30]
33.9 µM: [12] | [42]
26.4 µM: [46]
97.8 µM: [23]
> 100 µM: [6] | [29] | [33] | [34] | [43] | [48] | [50]
43.5 µM: [51]
53.6 µM: [15]
36.2 µM: [24]
76.3 µM: [20]
52.2 µM: [54]
29.2 µM: [4]
35 µM: [19]
44.8 µM: [27]
55 µM: [14]
33.3 µM: [13]
33.2 µM: [18]
38.1 µM: [49]
29.4 µM: [45]

CC(C)C(NC(=O)C(Cc1ccccc1)NC(=O)[C@H]1CCC[C@H]1NC(=O)C(N)Cc1ccc(O)cc1)C(N)=O (some centres undefined)
not listed: [12]
> 100 µM: all other assays above

CCC(=O)C(C(C)/C=C/CCSc1ccccc1)C(O)CCCCCC(=O)OC (centres undefined)
81 µM: [3]
not listed: [27] | [28] | [35] | [54]
> 100 µM: all other assays above
